Earlier results in patent EP1110914A2, “Water treatment method and apparatus” (ROHM AND HAAS COMPANY, priority 1999, dated 2001).
Read-outs that look alike come from different tables or passages of the source.

Conditions: in water

O=C=O [CO2, carbon dioxide]
CO2 Conc @ 15° C (pressure 101 kPa (1 bar)): 2,523 ppm | CO2 Conc @ 15° C (pressure 507 kPa (5 bar)): 12,613 ppm | CO2 Conc @ 15° C (pressure 931 kPa (9.2 bar)): 23,207 ppm | CO2 Conc @ 20° C (pressure 101 kPa (1 bar)): 2,174 ppm | CO2 Conc @ 20° C (pressure 507 kPa (5 bar)): 10,868 ppm | CO2 Conc @ 20° C (pressure 931 kPa (9.2 bar)): 19,996 ppm | CO2 Conc @ 25° C (pressure 101 kPa (1 bar)): 1,876 ppm | CO2 Conc @ 25° C (pressure 507 kPa (5 bar)): 9,381 ppm | CO2 Conc @ 25° C (pressure 931 kPa (9.2 bar)): 17,261 ppm
